We go through two compounds from patent publication US20050059608A1, “Pharmaceutical compounds” (priority 2001, published 2005).

Molecules are shown by their SMILES.

Series [1] can be described thus: Hydrolysis in aqueous solution (chemical hydrolysis in phosphate buffer). The following applies: aqueous phosphate buffer 0.16 M; for half-life: read-out: Pseudo-first order half-time (t1/2) for chemical hydrolysis (converted). Format: physicochemical. As to the method:
(§1) The HPLC system used consisted of a Beckman System Gold Programmable Solvent Module 126, Beckman System Gold Detector Module 166 with variable wavelength UV detector (set at 254 nm) and a Beckman System Gold Autosampler 507e. Separations were accomplished on a Purospher RP-18 reverse-phase column, 12.5 cm×4.0 mm i.d., 5 μm (Merck, Darmstadt, Germany). The chromatographic conditions were as follows: injection volume, 50 μl; column temperature, 40° C.; flow rate, gradient/isocratic at 1.0 ml/min. The mobile phase consisted of various proportions of methanol/water mixture (90:10) and a citrate/phosphate buffer pH 2.2.
The rate of chemical hydrolysis was determined in aqueous phosphate buffer solution (0.16 M) at pH 7.4, 5.0, and 1.2 at 37° C. An appropriate amount was dissolved in 10 ml of preheated buffer and the solution was placed in a thermostatically controlled water bath at 37° C. At appropriate time intervals, samples were taken and analyzed for the remaining codrug by HPLC. Pseudo-first order half-time (t1/2) for the hydrolysis was calculated from the slope of the linear portion of the plotted logarithm of remaining codrug vs. time.

Series [2] is described as follows: Hydrolysis in 10% rabbit liver homogenate. Format: in vitro ADME. The following applies: 10% rabbit liver homogenate (9,000 g supernatant), pH 7.4, 37° C., read-out: t1/2 of hydrolysis in rabbit liver homogenate. The procedure: as §1
The rabbit liver was homogenized with approximately four equivalent volumes of isotonic phosphate buffer at pH 7.4 using an X-1020 homogenizer (Ystral, Germany). The homogenate was centrifuged for 90 min at 9,000 g and 4° C. with a Biofuge 28 RS centrifuge (Heraeus Instruments, Germany). The supernatant was stored at −80° C. until analysis. An appropriate amount was dissolved in one volume of preheated 20% liver homogenate. The solution was then incubated at 37° C. At appropriate time intervals, samples (300 μl) were withdrawn. Samples were pretreated with 300 μl of methanol to terminate enzymatic activity. […] The residue was dissolved in 400 μl of the mobile phase buffer and analyzed by HPLC.

The conditions of series [3]: after oral administration; cited from earlier work.

Turning to `CCN(CC)C(=O)/C(C#N)=C/c1cc(OC(=O)N[C@@H](Cc2ccc(O)c(O)c2)C(=O)OC)c(O)c([N+](=O)[O-])c1` [Example 1, (S)-2-{5-[(E)-2-cyano-2-(diethylcarbamoyl)vinyl]-2-hydroxy-3-nitrophenoxycarbonylamino}-3-(3,4-dihydroxyphenyl)propionic acid methyl ester], the “Pseudo-first order half-time (t1/2) for chemical hydrolysis” value in series [1] (pH 1.2, 37° C.) was 12.1 h. For the same compound, the half-life in series [1] (pH 5.0, 37° C.) was 1.4 h; in series [1] (pH 7.4, 37° C.), 1.1 h; in series [2], 7 min.

Consider `CCN(CC)C(=O)/C(C#N)=C/c1cc(O)c(O)c([N+](=O)[O-])c1` [entacapone, (E)2-cyano-N,N-diethyl-3-(3,4-dihydroxy-5-nitrophenyl)propenamide], for which the bioavailability of entacapone in series [3] is 29-46%.
